Measured values taken from PMC6979384, “Characterization of the plant homeodomain (PHD) reader family for their histone tail interactions” (Epigenetics & Chromatin, 2020).

Key:
Experiment in all cases: Histone peptide microarray
Type in all cases: binding, human
PHF2 = details: sheet "Array Heatmap"; GST-tagged PHF2; arrays performed twice, total replicate number n = 4
How it was run: (§1)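 Histone peptide library (293 synthetic peptides, single/combinatorial PTMs) arrayed and probed with 0.5 μM purified GST-PHD domain; optimized protocol; quadruplicate mean and SD reported.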

KDM7A = details: sheet "Array Heatmap"; GST-tagged KDM7A; arrays performed twice, total replicate number n = 4
How it was run: as §1

PHF8 = details: sheet "Array Heatmap"; GST-tagged PHF8; arrays performed twice, total replicate number n = 4
How it was run: as §1

ING4 = details: sheet "Array Heatmap"; GST-tagged ING4; arrays performed twice, total replicate number n = 4
How it was run: as §1

SP140L = details: sheet "Array Heatmap"; GST-tagged SP140L; arrays performed twice, total replicate number n = 4
How it was run: as §1

CHD4 (PPCC) = details: sheet "Array Heatmap"; GST-tagged CHD4 (PPCC); arrays performed twice, total replicate number n = 4
How it was run: as §1

CHD5 (PPCC) = details: sheet "Array Heatmap"; GST-tagged CHD5 (PPCC); arrays performed twice, total replicate number n = 4
How it was run: as §1

PHF21A = details: sheet "Array Heatmap"; GST-tagged PHF21A; arrays performed twice, total replicate number n = 4
How it was run: as §1

KDM5B (1) = details: sheet "Array Heatmap"; GST-tagged KDM5B (1); arrays performed twice, total replicate number n = 4
How it was run: as §1

KDM5B (3) = details: sheet "Array Heatmap"; GST-tagged KDM5B (3); arrays performed twice, total replicate number n = 4
How it was run: as §1

MORC3 (CW) = details: sheet "Array Heatmap"; GST-tagged MORC3 (CW); arrays performed twice, total replicate number n = 4
How it was run: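 Steps: express and purify GST-tagged PHD reader; incubate 0.5 μM protein on a peptide microarray (293 histone peptides, single or combined PTMs) following an optimized protocol; average signal across 4 replicates.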

ING1 = details: sheet "Array Heatmap"; GST-tagged ING1; arrays performed twice, total replicate number n = 4
How it was run: as §1

TAF3 = details: sheet "Array Heatmap"; GST-tagged TAF3; arrays performed twice, total replicate number n = 4
How it was run: as §1

PHF23 = details: sheet "Array Heatmap"; GST-tagged PHF23; arrays performed twice, total replicate number n = 4
How it was run: as §1

DIDO1 = details: sheet "Array Heatmap"; GST-tagged DIDO1; arrays performed twice, total replicate number n = 4
How it was run: as §1

PHF13 = details: sheet "Array Heatmap"; GST-tagged PHF13; arrays performed twice, total replicate number n = 4
How it was run: as §1

KDM5A (3) = details: sheet "Array Heatmap"; GST-tagged KDM5A (3); arrays performed twice, total replicate number n = 4
How it was run: as §1

BAZ2B = details: sheet "Array Heatmap"; GST-tagged BAZ2B; arrays performed twice, total replicate number n = 4
How it was run: as §1

BPTF (PB) = details: sheet "Array Heatmap"; GST-tagged BPTF (PB); arrays performed twice, total replicate number n = 4
How it was run: as §1

PHRF1 (RP) = details: sheet "Array Heatmap"; GST-tagged PHRF1 (RP); arrays performed twice, total replicate number n = 4
How it was run: as §1

CHD5 (PCC) = details: sheet "Array Heatmap"; GST-tagged CHD5 (PCC); arrays performed twice, total replicate number n = 4
How it was run: as §1

MLL5 = details: sheet "Array Heatmap"; GST-tagged MLL5; arrays performed twice, total replicate number n = 4
How it was run: as §1

ING5 = details: sheet "Array Heatmap"; GST-tagged ING5; arrays performed twice, total replicate number n = 4
How it was run: as §1

DPF2 (PPC2W2) = details: sheet "Array Heatmap"; GST-tagged DPF2 (PPC2W2); arrays performed twice, total replicate number n = 4
How it was run: as §1

TRIM66 (PB) = details: sheet "Array Heatmap"; GST-tagged TRIM66 (PB); arrays performed twice, total replicate number n = 4
How it was run: as §1

AIRE (PP) = details: sheet "Array Heatmap"; GST-tagged AIRE (PP); arrays performed twice, total replicate number n = 4
How it was run: as §1

KDM5A (1) = details: sheet "Array Heatmap"; GST-tagged KDM5A (1); arrays performed twice, total replicate number n = 4
How it was run: as §1

RAG2 = details: sheet "Array Heatmap"; GST-tagged RAG2; arrays performed twice, total replicate number n = 4
How it was run: as §1

KDM4C (TTP) = details: sheet "Array Heatmap"; GST-tagged KDM4C (TTP); arrays performed twice, total replicate number n = 4
How it was run: as §1

ING3 = details: sheet "Array Heatmap"; GST-tagged ING3; arrays performed twice, total replicate number n = 4
How it was run: as §1

ING2 = details: sheet "Array Heatmap"; GST-tagged ING2; arrays performed twice, total replicate number n = 4
How it was run: as §1

Row | Substance | Array Heatmap signal, PHF2 (PHF2) | Array Heatmap signal, KDM7A (KDM7A) | Array Heatmap signal, PHF8 (PHF8) | Array Heatmap signal, ING4 (ING4) | Array Heatmap signal, SP140L (SP140L) | Array Heatmap signal, CHD4 (PPCC) (CHD4 (PPCC)) | Array Heatmap signal, CHD5 (PPCC) (CHD5 (PPCC)) | Array Heatmap signal, PHF21A (PHF21A) | Array Heatmap signal, KDM5B (1) (KDM5B (1)) | Array Heatmap signal, KDM5B (3) (KDM5B (3)) | Array Heatmap signal, MORC3 (CW) (MORC3 (CW)) | Array Heatmap signal, ING1 (ING1) | Array Heatmap signal, TAF3 (TAF3) | Array Heatmap signal, PHF23 (PHF23) | Array Heatmap signal, DIDO1 (DIDO1) | Array Heatmap signal, PHF13 (PHF13) | Array Heatmap signal, KDM5A (3) (KDM5A (3)) | Array Heatmap signal, BAZ2B (BAZ2B) | Array Heatmap signal, BPTF (PB) (BPTF (PB)) | Array Heatmap signal, PHRF1 (RP) (PHRF1 (RP)) | other results
1 | H3 30-49: H3 30-49 | 0.4841 | 0.3271 | 0.3204 | 0.3885 | 0.3311 | 0.528 | 0.4615 | 0.4117 | 0.5482 | 0.3902 | 0.3313 | 0.4722 | 0.2243 | 0.4894 | 0.6094 | 0.5208 | 0.3525 | 0.368 | 0.2984 | 0.3713 | Array Heatmap signal, CHD5 (PCC) (CHD5 (PCC)): 0.7179; Array Heatmap signal, MLL5 (MLL5): 0.4726; Array Heatmap signal, ING5 (ING5): 0.2813; Array Heatmap signal, DPF2 (PPC2W2) (DPF2 (PPC2W2)): 0.6079; Array Heatmap signal, TRIM66 (PB) (TRIM66 (PB)): 0.5425; Array Heatmap signal, AIRE (PP) (AIRE (PP)): 0.3585; Array Heatmap signal, KDM5A (1) (KDM5A (1)): 0.3827; Array Heatmap signal, RAG2 (RAG2): 0.2065; Array Heatmap signal, KDM4C (TTP) (KDM4C (TTP)): 0.4088; Array Heatmap signal, ING3 (ING3): 0.4287; Array Heatmap signal, ING2 (ING2): 0.5897
2 | H3 105-124: H3 105-124 | 0.4643 | 0.4014 | 0.3594 | 0.4475 | 0.3548 | 0.628 | 0.5675 | 0.4845 | 0.6304 | 0.4564 | 0.3313 | 0.4905 | 0.2585 | 0.5245 | 0.6132 | 0.6001 | 0.3849 | 0.4756 | 0.3405 | 0.3871 | Array Heatmap signal, CHD5 (PCC) (CHD5 (PCC)): 0.8446; Array Heatmap signal, MLL5 (MLL5): 0.5209; Array Heatmap signal, ING5 (ING5): 0.3472; Array Heatmap signal, DPF2 (PPC2W2) (DPF2 (PPC2W2)): 0.5942; Array Heatmap signal, TRIM66 (PB) (TRIM66 (PB)): 0.6004; Array Heatmap signal, AIRE (PP) (AIRE (PP)): 0.5002; Array Heatmap signal, KDM5A (1) (KDM5A (1)): 0.4735; Array Heatmap signal, RAG2 (RAG2): 0.2418; Array Heatmap signal, KDM4C (TTP) (KDM4C (TTP)): 0.5235; Array Heatmap signal, ING3 (ING3): 0.4768; Array Heatmap signal, ING2 (ING2): 0.5916
3 | H3 (1-20) N-ac: H3 1-20 | 0.4904 | 0.3283 | 0.365 | 0.4519 | 0.3813 | 0.5805 | 0.5483 | 0.4724 | 0.6502 | 0.5329 | 0.4955 | 0.5284 | 0.3122 | 0.532 | 0.6386 | 0.6234 | 0.5353 | 0.4663 | 0.3531 | 0.6182 | Array Heatmap signal, CHD5 (PCC) (CHD5 (PCC)): 0.8196; Array Heatmap signal, MLL5 (MLL5): 0.5714; Array Heatmap signal, ING5 (ING5): 0.3522; Array Heatmap signal, DPF2 (PPC2W2) (DPF2 (PPC2W2)): 0.6951; Array Heatmap signal, TRIM66 (PB) (TRIM66 (PB)): 0.7386; Array Heatmap signal, AIRE (PP) (AIRE (PP)): 0.5035; Array Heatmap signal, KDM5A (1) (KDM5A (1)): 0.4705; Array Heatmap signal, RAG2 (RAG2): 0.259; Array Heatmap signal, KDM4C (TTP) (KDM4C (TTP)): 0.4656; Array Heatmap signal, ING3 (ING3): 0.4681; Array Heatmap signal, ING2 (ING2): 0.6126
